# How the values were obtained:
# wheat = assay: Test B pre/postemergence wheat; type: in vivo, Triticum aestivum
# How it was run: (§1)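 Herbicidal effect was estimated by eye on a ten-point control scale after plants spent twelve to sixteen days in a greenhouse following soil or foliar treatment. Foliar sprays targeted plants at one to four leaves; all doses were formulated in a non-phytotoxic solvent with surfactant.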
# blackgrass = assay: Test B pre/postemergence blackgrass; type: in vivo, Alopecurus myosuroides
# How it was run: as §1
# velvetleaf = assay: Test B pre/postemergence velvetleaf; type: in vivo, Abutilon theophrasti
# How it was run: as §1
# bedstraw = assay: Test B pre/postemergence bedstraw; type: in vivo, Galium aparine
# How it was run: as §1
# [1] = Postemergence, Rate 125 g/ha, scale 0 to 10, 0 is no effect, 10 is complete control
# [2] = Preemergence, Rate 62 g/ha, scale of 0 to 10 where 0 is no effect and 10 is complete control
# [3] = Preemergence, Rate 500 g/ha, scale of 0 to 10 where 0 is no effect and 10 is complete control
# [4] = Rate 62 g/ha, Postemergence, scale 0 to 10 (0 no effect, 10 complete control)
# [5] = Rate 250 g/ha, Postemergence, scale of 0 to 10 where 0 is no effect and 10 is complete control
# [6] = Rate 500 g/ha, Postemergence, scale 0 to 10, 0 no effect, 10 complete control
# [7] = Preemergence, Rate 250 g/ha, scale of 0 to 10 where 0 is no effect and 10 is complete control
# [8] = Postemergence, Rate 250 g/ha, scale 0 to 10, 0 is no effect, 10 is complete control
# [9] = Postemergence, Rate 1000 g/ha, scale 0 to 10 (0 no effect, 10 complete control)
# [10] = Rate 1000 g/ha, Preemergence, scale 0 to 10 (0 no effect, 10 complete control)
# [11] = Postemergence, Rate 62 g/ha, scale 0 to 10, 0 is no effect, 10 is complete control
# [12] = Postemergence, Rate 250 g/ha, scale 0 to 10, 0 no effect, 10 complete control
# [13] = Preemergence, Rate 31 g/ha, visual rating, scale 0 to 10 (0 no effect, 10 complete control)
# [14] = Preemergence, Rate 62 g/ha, scale 0 to 10, 0 is no effect, 10 is complete control
# [15] = Preemergence, Rate 125 g/ha, scale 0 to 10 (0 no effect, 10 complete control)
# [16] = Rate 125 g/ha, Postemergence, scale 0 to 10, 0 no effect, 10 complete control
# [17] = Rate 31 g/ha, Postemergence, scale 0 to 10
# [18] = Rate 62 g/ha, Postemergence, scale of 0 to 10 where 0 is no effect and 10 is complete control
# [19] = Rate 125 g/ha, Postemergence, scale 0 to 10
# [20] = Rate 125 g/ha, Preemergence, scale of 0 to 10 where 0 is no effect and 10 is complete control
smiles,measurement,setting,value
CC(C)N(C(=O)n1oc(=O)n(C2CC3CCC2C3)c1=O)c1ccc(F)cc1 (stereo not shown) [Compound 327],"Plant response rating, Wheat",wheat; [1],0
same,Wheat plant response rating,wheat; [2],0
same,Wheat plant response rating,wheat; [3],4
same,Wheat plant response rating,wheat; [4],0
same,"Plant response rating, Wheat",wheat; [5],0
same,"Plant response rating, Wheat",wheat; [6],1
same,"Plant response rating, Blackgrass",blackgrass; [1],0
same,Blackgrass plant response rating,blackgrass; [2],0
same,Blackgrass plant response rating (0 to 10 scale),"blackgrass; Preemergence, Rate 125 g/ha",0
same,Blackgrass plant response rating,blackgrass; [7],4
same,Blackgrass plant response rating,blackgrass; [3],7
same,Blackgrass plant response rating,blackgrass; [4],0
same,"Plant response rating, Blackgrass",blackgrass; [5],3
same,"Plant response rating, Blackgrass",blackgrass; [6],7
same,"Plant response rating, Velvetleaf",velvetleaf; [1],0
same,Velvetleaf plant response rating,velvetleaf; [2],0
same,Velvetleaf plant response rating (0 to 10 scale),"velvetleaf; Preemergence, Rate 125 g/ha",0
same,Velvetleaf plant response rating,velvetleaf; [7],0
same,Velvetleaf plant response rating,velvetleaf; [3],0
same,Velvetleaf plant response rating,velvetleaf; [4],0
same,"Plant response rating, Velvetleaf",velvetleaf; [5],0
same,"Plant response rating, Velvetleaf",velvetleaf; [6],0
same,"Plant response rating, Bedstraw",bedstraw; [1],7
same,Bedstraw plant response rating,bedstraw; [4],7
same,"Plant response rating, Bedstraw",bedstraw; [5],7
CCOC(=O)C(C)N(C(=O)n1oc(=O)n(C)c1=O)c1ccc(F)cc1 (stereo not shown) [Compound 365],"Plant response rating, Wheat",wheat; [1],0
same,"Plant response rating, Wheat",wheat; [8],0
same,Wheat plant response rating,wheat; [9],0
same,Wheat plant response rating (0 to 10 scale),"wheat; Preemergence, Rate 125 g/ha",0
same,Wheat plant response rating,wheat; [7],0
same,Wheat plant response rating,wheat; [3],0
same,"Plant response rating, Wheat",wheat; [6],0
same,"Plant response rating, Wheat",wheat; [10],0
same,"Plant response rating, Blackgrass",blackgrass; [1],0
same,"Plant response rating, Blackgrass",blackgrass; [8],0
same,Blackgrass plant response rating,blackgrass; [9],0
same,Blackgrass plant response rating (0 to 10 scale),"blackgrass; Preemergence, Rate 125 g/ha",0
same,Blackgrass plant response rating,blackgrass; [7],0
same,Blackgrass plant response rating,blackgrass; [3],0
same,"Plant response rating, Blackgrass",blackgrass; [6],0
same,"Plant response rating, Blackgrass",blackgrass; [10],0
same,"Plant response rating, Velvetleaf",velvetleaf; [1],0
same,"Plant response rating, Velvetleaf",velvetleaf; [8],0
same,Velvetleaf plant response rating,velvetleaf; [9],0
same,Velvetleaf plant response rating (0 to 10 scale),"velvetleaf; Preemergence, Rate 125 g/ha",0
same,Velvetleaf plant response rating,velvetleaf; [7],0
same,Velvetleaf plant response rating,velvetleaf; [3],0
same,"Plant response rating, Velvetleaf",velvetleaf; [6],0
same,"Plant response rating, Velvetleaf",velvetleaf; [10],0
same,Bedstraw plant response rating (0 to 10 scale),"bedstraw; Preemergence, Rate 125 g/ha",0
same,Bedstraw plant response rating,bedstraw; [7],0
same,Bedstraw plant response rating,bedstraw; [3],0
same,"Plant response rating, Bedstraw",bedstraw; [10],0
COc1ccc(-n2c(=O)on(C(=O)N(c3ccc(F)cc3)C(C)C)c2=O)c(OC)c1 [Compound 33],Wheat plant response rating,wheat; [11],0
same,Wheat plant response rating,wheat; [12],0
same,Wheat plant response rating,wheat; [13],0
same,"Plant response rating, Wheat",wheat; [14],0
same,"Plant response rating, Wheat",wheat; [15],0
same,"Plant response rating, Wheat",wheat; [7],0
same,Wheat plant response rating,wheat; [16],0
same,Blackgrass plant response rating,blackgrass; [11],4
same,Blackgrass plant response rating,blackgrass; [12],5
same,Blackgrass plant response rating,blackgrass; [13],0
same,"Plant response rating, Blackgrass",blackgrass; [14],0
same,"Plant response rating, Blackgrass",blackgrass; [15],0
same,"Plant response rating, Blackgrass",blackgrass; [7],0
same,Blackgrass plant response rating,blackgrass; [17],3
same,Blackgrass plant response rating,blackgrass; [16],5
same,Velvetleaf plant response rating,velvetleaf; [11],0
same,Velvetleaf plant response rating,velvetleaf; [12],2
same,Velvetleaf plant response rating,velvetleaf; [13],0
same,"Plant response rating, Velvetleaf",velvetleaf; [14],0
same,"Plant response rating, Velvetleaf",velvetleaf; [15],0
same,"Plant response rating, Velvetleaf",velvetleaf; [7],0
same,Velvetleaf plant response rating,velvetleaf; [16],1
same,Bedstraw plant response rating,bedstraw; [11],0
same,Bedstraw plant response rating,bedstraw; [12],2
same,Bedstraw plant response rating,bedstraw; [13],0
same,"Plant response rating, Bedstraw",bedstraw; [14],0
same,"Plant response rating, Bedstraw",bedstraw; [15],0
same,"Plant response rating, Bedstraw",bedstraw; [7],0
same,Bedstraw plant response rating,bedstraw; [17],0
same,Bedstraw plant response rating,bedstraw; [16],1
COc1cc(C)cc(C)c1-n1c(=O)on(C(=O)N(c2ccc(F)cc2)C(C)C)c1=O [Compound 222],Wheat plant response rating,wheat; [2],0
same,Wheat plant response rating,wheat; [7],0
same,"Plant response rating, Wheat",wheat; [3],0
same,Wheat plant response rating,wheat; [18],0
same,Wheat plant response rating,wheat; [19],0
same,Wheat plant response rating,wheat; [20],0
same,"Plant response rating (0 to 10; 0 is no effect, 10 is complete control), Wheat","wheat; Rate 250 g/ha, Postemergence",0
same,Wheat plant response rating,wheat; [6],0
same,Blackgrass plant response rating,blackgrass; [2],0
same,Blackgrass plant response rating,blackgrass; [7],0
same,"Plant response rating, Blackgrass",blackgrass; [3],0
same,Blackgrass plant response rating,blackgrass; [18],0
same,Blackgrass plant response rating,blackgrass; [19],0
same,Blackgrass plant response rating,blackgrass; [20],0
same,"Plant response rating (0 to 10; 0 is no effect, 10 is complete control), Blackgrass","blackgrass; Rate 250 g/ha, Postemergence",3
same,Blackgrass plant response rating,blackgrass; [6],4
same,Velvetleaf plant response rating,velvetleaf; [2],0
same,Velvetleaf plant response rating,velvetleaf; [7],0
same,"Plant response rating, Velvetleaf",velvetleaf; [3],3
same,Velvetleaf plant response rating,velvetleaf; [18],0
same,Velvetleaf plant response rating,velvetleaf; [19],0
same,Velvetleaf plant response rating,velvetleaf; [20],0
same,"Plant response rating (0 to 10; 0 is no effect, 10 is complete control), Velvetleaf","velvetleaf; Rate 250 g/ha, Postemergence",2
same,Velvetleaf plant response rating,velvetleaf; [6],3
same,Bedstraw plant response rating,bedstraw; [2],0
same,Bedstraw plant response rating,bedstraw; [7],0
same,"Plant response rating, Bedstraw",bedstraw; [3],0
same,Bedstraw plant response rating,bedstraw; [18],3
same,Bedstraw plant response rating,bedstraw; [19],3
same,Bedstraw plant response rating,bedstraw; [20],0
same,"Plant response rating (0 to 10; 0 is no effect, 10 is complete control), Bedstraw","bedstraw; Rate 250 g/ha, Postemergence",4
same,Bedstraw plant response rating,bedstraw; [6],5

# Source: US6737383B1, “Herbicidal oxadiazolidines” (priority 1999, dated 2004)
